One test has as its system Thoracic artery. Description: Inhibition of potassium chloride-induced contraction in Rattus norvegicus albino (rat) thoracic artery at 10^-5 mol/l after 10 min. It is filed as functional.
A further test has as its system Ileum. The test can be described thus: Inhibition of barium chloride-induced contraction inRattus norvegicus albino (rat) ileum at 10^-5 mol/l after 10 min. The test is classed as functional.

On to `COC(=O)C1=C(C)NC2=C(C(=O)C(C)(C)CC2)C1c1c(F)cccc1F` (stereo unspecified), for which the inhibition at 10 µM in the test on Thoracic artery was found to be 23.6%; in the test on Ileum, 79.4%. Taken in the same sequence, the figures for `CCOC(=O)C1=C(C)NC2=C(C(=O)C(C)(C)CC2)C1c1cc(F)ccc1F` (stereo unspecified) were 21.4% and 86.8%. In the test with Ileum, `COC(=O)C1=C(C)NC2=C(C(=O)CC(C)(C)C2)C1c1c(F)cccc1F` (stereo unspecified) returned an inhibition at 10 µM of 74.6%. On to `CCN(CC)C(=O)C1=C(C)NC2=C(C(=O)C(C)(C)CC2)C1c1cccc(F)c1F` (stereo unspecified), for which the results for the inhibition at 10 µM in the test with Thoracic artery and in the test with Ileum were 37% and 54.2%, respectively. The matching figures for `CCN(CC)C(=O)C1=C(C)NC2=C(C(=O)CC(C)(C)C2)C1c1cccc(F)c1F` (stereo unspecified): 31.5% and 51.3%.

On to `COC(=O)C1=C(C)NC(C)=C(C(=O)OCCN(C)Cc2ccccc2)C1c1cccc([N+](=O)[O-])c1` (stereo unspecified) [NICARDIPINE], for which the inhibition at 10 µM with Thoracic artery came out at 15.9%; with Ileum it was 70%.

For the origin of these results see ChEMBL document CHEMBL3045309, “Synthesis and cardiovascular activity of difluro-substituted hexahydroquinoline” (2008).
